According to US6486193B2, “3-substituted pyrrolidines useful as inhibitors of matrix metalloproteinases” (Aventis Pharmaceuticals Inc., priority 1998, dated 2002):

Columns and labels:
Type in all cases: biochemical
[1] = target: T1, MMP-2 (Homo sapiens, UniProt P08253); assay: Determination of inhibition constant (Ki) for MMP-2, fluorogenic substrate; conditions: footnote: results are identical for MMP-1, MMP-2, MMP-3, MMP-13 and MMP-14, read-out: MMP Ki app
T1 construct: made in house; host or cells: Pichia pastoris (vector pHIL-D2; strains KM71 and SMD1168; clone 24S)
T1 sequence (P08253 110-660): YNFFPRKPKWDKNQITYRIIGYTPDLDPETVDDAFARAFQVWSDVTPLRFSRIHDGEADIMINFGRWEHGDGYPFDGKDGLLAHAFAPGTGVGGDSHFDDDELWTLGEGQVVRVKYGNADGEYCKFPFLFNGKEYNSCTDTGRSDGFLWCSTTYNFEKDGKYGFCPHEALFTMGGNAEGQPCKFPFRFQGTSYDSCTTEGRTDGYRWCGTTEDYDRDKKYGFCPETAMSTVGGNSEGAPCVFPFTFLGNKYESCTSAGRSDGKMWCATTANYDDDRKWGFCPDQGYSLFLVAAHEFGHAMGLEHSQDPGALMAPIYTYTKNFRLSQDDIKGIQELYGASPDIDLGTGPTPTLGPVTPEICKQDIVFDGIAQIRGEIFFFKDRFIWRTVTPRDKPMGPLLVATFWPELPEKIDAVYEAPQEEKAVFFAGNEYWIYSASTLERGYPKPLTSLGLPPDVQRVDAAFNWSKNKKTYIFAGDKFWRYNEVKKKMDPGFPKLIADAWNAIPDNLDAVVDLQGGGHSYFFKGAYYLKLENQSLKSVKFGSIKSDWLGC
Excerpt: Recombinant MMP-2 was purified from the fermentation broth of yeast Pichia pastoris that carries the integrated MMP-2 gene into its chromosome. In brief, the full-length cDNA for MMP-2 was obtained by reverse transcription of RNA from human melanoma A375M cell line by the reverse transcriptase polymerase chain reaction (RT-PCR) using sequence specific oligonucleotides. The nucleotide sequence was confirmed by Taq cycle sequencing. The cDNA was ligated into the Pichia pastoris expression vector pHIL-D2 in such a way that the expression of pro-MMP-2 is under the control of the methanol inducible alcohol oxidase promoter. The expression construct was digested with either SalI or NsiI and used to transform the Pichia pastoris strains KM71 and SMD1 168. A large-scale culture of a selected clone designated 24S was performed in a high cell density fermentor and the recombinant MMP-2 was purified from the culture supernatant by gelatin-sepharose 4B (Pharmacia). The enzyme is sufficiently pure at this stage for routine measurement of inhibition. If desired, however, the enzyme may be further purified by AcA 44 gel filtration (Spectra).
The active MMP-2 was obtained by activation of proMMP-2 at 37° C. for 1 h with 4-aminophenylmercuric acetate which was then removed by a Sephadex G-50 spin column. The enzyme is assayed using a fluorogenic substrate, Mca-Pro-Leu-Gly-Leu-Dpa-Ala-Arg-NH2, at 37° C. in 2.0 mL of assay buffer containing 50 mM Tris, pH 7.6, 0.2 M sodium chloride, 50 mM calcium chloride, 0.02% Brij-35, and 50 μM β-mercaptoethanol. The increase in fluorescence is monitored (λex 328 nm, λem 393 nm). Substrate and inhibitor stock solutions are made in DMF. The enzyme is added at the last to start the reaction. For routine measurement of a Ki value for a reversible, competitive inhibitor, the initial rates in the presence of at least four inhibitor concentrations (two inhibitor concentrations above Ki and two below Ki) are measured using [S]=1 μM (<<Km) and [MMP-2]=0.4 nM. Under these conditions, the measured Ki, app is close to true Ki.

[2] = target: MMP-13 (Homo sapiens, UniProt P45452); assay: Ki app for MMP-13; conditions: footnote: results are identical for MMP-1, MMP-2, MMP-3, MMP-13 and MMP-14
[3] = target: MMP-14 (Homo sapiens, UniProt P50281); assay: Ki app for MMP-14; conditions: footnote: results are identical for MMP-1, MMP-2, MMP-3, MMP-13 and MMP-14
[4] = target: MMP-8 (Homo sapiens, UniProt P22894); assay: MMP-8 enzyme activity, quenched fluorigenic substrate, 96 well plate; conditions: read-out: MMP-8 Ki app
Method: The MMP-8 data was determined according to Knight C. G. et al., Febs Lett, 296, 263-266 (1992), “A novel coumarin-labelled peptide for sensitive continuous assays of the matrix metalloproteinases” in the modification of K. U. Weithmann et al., Inflamm. Res. 46 (7), 246-252 (1997), “Effects of tiaprofenic acid on urinary pyridinium crosslinks in adjuvant arthritic rats: Comparison and doxycycline effects on human matrix metalloproteinases and cellular cytokine generation in vitro” as follows:
Enzyme activity of MMP was determined in 96 well titer plate format in a luminescence spectrometer (LS 50B, Perkin Elmer, Langen, FRG), using the quenched fluorigenic substrate 7-methoxycoumarin-4-yl) acetyl-pro-leu-gly-leu-3-(2′,4′-dinitrophenyl)-L-2,3-diaminopropionyl-ala-arg-NH2 (λex=328 nm, λem=393 nm), available from Bachem, Heidelberg, FRG. Each well contained: 70 μl buffer (0.1 mol/l tris/HCl, pH=7.5; 0.1 mol/l NaCl; 0.01 mol/l CaCl2,0.05% Brij 35™), 10 μl enzyme, and 10 μl drug in 10%DMSO. After preincubation for 15 min at room temperature the reaction was started by addition of 10 μl substrate (1 mmol/l in 10% DMSO). Initial velocity of enzymatic reaction was determined without drug (=100%) or, resp. with different drug concentrations.

Sequence of MMP-8 (P22894 101-467): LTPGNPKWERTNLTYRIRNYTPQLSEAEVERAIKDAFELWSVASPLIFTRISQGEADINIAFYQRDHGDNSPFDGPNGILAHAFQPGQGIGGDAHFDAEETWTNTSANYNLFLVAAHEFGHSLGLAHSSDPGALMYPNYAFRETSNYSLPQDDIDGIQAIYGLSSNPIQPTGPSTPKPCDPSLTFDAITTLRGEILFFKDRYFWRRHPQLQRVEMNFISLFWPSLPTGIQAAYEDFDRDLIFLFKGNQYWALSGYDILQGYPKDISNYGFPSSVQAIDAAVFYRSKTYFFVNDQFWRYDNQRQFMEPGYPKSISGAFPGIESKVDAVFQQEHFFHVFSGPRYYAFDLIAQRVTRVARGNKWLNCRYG

CNC(=O)[C@@H](Cc1cccnc1)NC(=O)[C@@H]1C(Cc2ccccc2)CCN1C(=O)[C@@H](S)C(C)C (stereo in doubt) [Compound 1f, (2S,3S)-3-Benzyl-1-((S)-2-mercapto-3-methyl-butanoyl)-pyrrolidine-2-carboxylic acid ((R)-1-methylcarbamoyl-2-pyridin-3-yl-ethyl)-amide]
Ki [1]: > 10 µM
Ki [2]: > 10 µM
Ki [3]: > 10 µM
Ki [4]: > 10 µM

CNC(=O)[C@H](Cc1ccc(O)cc1)NC(=O)[C@@H]1[C@@H](Cc2ccccc2)CCN1C(=O)[C@@H](S)C(C)C [Compound 1a, (2S,3S)-3-Benzyl-1-((S)-2-mercapto-3-methyl-butanoyl)-pyrrolidine-2-carboxylic acid [(S)-2-(4-hydroxy-phenyl)-1-methylcarbamoyl-ethyl]-amide]
Ki [1]: > 10 µM
Ki [2]: > 10 µM
Ki [3]: > 10 µM
Ki [4]: > 10 µM

CNC(=O)[C@H](Cc1ccc(O)cc1)NC(=O)[C@@H]1[C@H](Cc2ccccc2)CCN1C(=O)[C@@H](S)C(C)C [Compound 1b, (2S,3R)-3-Benzyl-1-((S)-2-mercapto-3-methyl-butanoyl)-pyrrolidine-2-carboxylic acid [(S)-2-(4-hydroxy-phenyl)-1-methylcarbamoyl-ethyl]-amide]
Ki [1]: > 10 µM
Ki [2]: > 10 µM
Ki [3]: > 10 µM
Ki [4]: 3 µM

CNC(=O)[C@H](Cc1cccnc1)NC(=O)[C@@H]1[C@@H](Cc2ccccc2)CCN1C(=O)[C@@H](S)C(C)C [Compound 1c, (2S,3S)-3-Benzyl-1-((S)-2-mercapto-3-methyl-butanoyl)-pyrrolidine-2-carboxylic acid ((S)-1-methylcarbamoyl-2-pyridin-3-yl-ethyl)-amide]
Ki [1]: > 10 µM
Ki [2]: > 10 µM
Ki [3]: > 10 µM
Ki [4]: 9 µM

CNC(=O)[C@H](Cc1cccnc1)NC(=O)[C@@H]1[C@H](Cc2ccccc2)CCN1C(=O)[C@@H](S)C(C)C [Compound 1d, (2S,3R)-3-Benzyl-1-((S)-2-mercapto-3-methyl-butanoyl)-pyrrolidine-2-carboxylic acid ((S)-1-methylcarbamoyl-2-pyridin-3-yl-ethyl)-amide]
Ki [1]: > 10 µM
Ki [2]: > 10 µM
Ki [3]: > 10 µM
Ki [4]: 4 µM

CNC(=O)[C@@H](Cc1cccnc1)NC(=O)[C@@H]1[C@@H](Cc2ccccc2)CCN1C(=O)[C@@H](S)C(C)C [Compound 1e, (2S,3S)-3-Benzyl-1-((S)-2-mercapto-3-methyl-butanoyl)-pyrrolidine-2-carboxylic acid ((R)-1-methylcarbamoyl-2-pyridin-3-yl-ethyl)-amide]
Ki [1]: > 10 µM
Ki [2]: > 10 µM
Ki [3]: > 10 µM
Ki [4]: > 10 µM

CNC(=O)[C@@H](NC(=O)[C@@H]1[C@@H](Cc2ccccc2)CCN1C(=O)[C@@H](S)C(C)C)C(C)(C)C [Compound 1g, (2S,3S)-3-Benzyl-1-((S)-2-mercapto-3-methyl-butanoyl)-pyrrolidine-2-carboxylic acid ((S)-2,2-dimethyl-1-methylcarbamoyl-propyl)-amide]
Ki [1]: > 10 µM
Ki [2]: > 10 µM
Ki [3]: > 10 µM
Ki [4]: > 10 µM

CNC(=O)[C@@H](NC(=O)[C@@H]1[C@H](Cc2ccccc2)CCN1C(=O)[C@@H](S)C(C)C)C(C)(C)C [Compound 1h, (2S,3R)-3-Benzyl-1-((S)-2-mercapto-3-methyl-butanoyl)-pyrrolidine-2-carboxylic acid ((S)-2,2-dimethyl-1-methylcarbamoyl-propyl)-amide]
Ki [1]: > 10 µM
Ki [2]: > 10 µM
Ki [3]: > 10 µM
Ki [4]: 3 µM
